# Laboratory results from paper PMC12521527, “In vivo self-assembled nano-PROTAC for the dual degradation of AR and HSP90 to overcome castration-resistant prostate cancer resistance” (Signal Transduction and Targeted Therapy, 2025).
# Numbered stars: 1 amine (or outer) side, 2 acyl side, 3 side chain; on linkers, the order of the positions; unused ones are H or OH. Square brackets hold non-standard residues; d marks the D form. Peptide text beside a SMILES is read from it. * marks the point of attachment. X2 = CC1(C)C(=O)N(c2ccc(C#N)c(C(F)(F)F)c2)C(=S)N1c1ccc(C(=O)*)c(F)c1; X1 = O=C1CCC(N2C(=O)c3cccc(N(CC(=O)[*:2])[*:1])c3C2=O)C(=O)N1; EuK = O=C(O)CC[C@H](NC(=O)N[C@@H](CCCCN*)C(=O)O)C(=O)O; 2Nal = N[C@@H](Cc1ccc2ccccc2c1)C(=O)O
# Experiments:
# 22Rv1 (PSMA^high) cells = assay: Flow cytometry uptake of FITC-labeled conjugates in 22Rv1 cells; format: cell-based; conditions: 40 µM, 24 h, n = 3
# Method: Fig. 2 a Representative 22Rv1 cell CLSM images of FITC-labeled Psa-AR (40 μM) assembly (green channel) interacting with PSMA (red channel) and its colocalization analysis (1–1’). Scale bar: 10 μm. b Representative SEM images of 22Rv1 cells after treatment with Psa-AR (40 μM) for 4 h. Scale bar: 1 μm. Scale bar: 200 nm (zoom in). c Representative 22Rv1 cell CLSM images of FITC-labeled P-AR (40 μM) (green channel) interacting with PSMA (red channel). Scale bar: 10 μm. d Representative SEM images of 22Rv1 cells after treatment with P-AR (40 μM) for 4 h. Scale bar: 1 μm. Scale bar: 200 nm (zoom in). e The uptake of either Psa-AR or P-AR by 22Rv1 (PSMA^high) and RWPE-1 (PSMA^low) cells was examined by flow cytometry, followed by comprehensive quantitative analysis (f), n = 3 per group. g Representative 22Rv1 cell CLSM images of FITC-labeled Psa-AR assembly (green channel) with lysosomes (red channel) and colocalization analysis. Scale bar: 10 μm. h Representative CLSM images of 22Rv1 cells after incubation with FITC-labeled Psa-AR (green channel) for 12 h. […]
# A total of 1 × 10^5 22Rv1 cells per well were seeded in 6-well plates in DMEM containing 10% fetal bovine serum and 1% penicillin‒streptomycin. […] Then, the cells were collected to evaluate fluorescence expression via flow cytometry. […] The cells were then collected and analyzed for fluorescence expression via flow cytometry.
# AR [1] = molecular target: T1, AR (Homo sapiens, UniProt P10275, T878A); assay: Western blot AR degradation in LNCaP cells; format: cell-based
# T1 construct: endogenous in cells; host or cells: LNCaP
# Method: (§1) All uncropped blots are presented in Supplementary Fig. 26. j, k Representative 22Rv1 cell CLSM images of the degradation of AR after incubation with FITC-labeled Psa-AR for 12 h and quantitative analysis, n = 3 per group. Scale bar: 10 μm. l, m Representative 22Rv1 cell CLSM images of the degradation of HSP90 after incubation with FITC-labeled Psa-AR for 12 h and quantitative analysis, n = 3 per group. Scale bar: 10 μm. n AR-V7 expression in 22Rv1 cells after treatment with PBS, P-AR (20 μM), Psa-AR (20 μM) or Psa-AR (20 μM) combined with MG132 (2 μM) for 48 h, as determined by western blotting. β-Actin was used as an internal reference. o Results of apoptosis in 22Rv1 cells treated with PBS, P-AR (20 μM), or Psa-AR (20 μM) for 48 h, as detected by flow cytometry.
# (§2) The pretreated cells were resuspended in lysis buffer containing 50 mM Tris-HCl (pH 8.0), 150 mM NaCl, 1% (v/v) Triton X-100, and protease inhibitors. The protein concentration was determined via a BCA kit (Applygen). Each sample ([…]) was subjected to SDS‒PAGE and then transferred to a PVDF membrane. The blots were blocked in 5% (wt/v) blocking buffer. After washing three times with TBST buffer (10 mM TBS solution containing 0.1% (v/v) Tween-20), the blots were incubated with primary antibodies at 4 °C on a shaker for 16 h. After washing with TBST buffer three times, the blot was incubated with secondary antibodies at room temperature on a shaker for 2 h. After being washed three times with TBST buffer, the blots were subsequently scanned on a Typhoon Trio Variable Mode Imager.
# [2] = In vivo biocompatibility in healthy mice; conditions: healthy BALB/c mice
# Method: Fig. 7 In vivo antitumor efficacy of Psa-AR. a Schematic illustration of the tumor inoculation and treatment protocol for 22Rv1 xenograft mice. (n = 6 per group) b Observation of the tumor inhibitory effect on 22Rv1 xenograft mice in PBS, enzalutamide, pimitespib, Enza, Pimi, and Psa-AR (30 mg/kg in 200 μL of PBS) over 20 days of treatment. (Enza, Pimi: Combination therapy with enzalutamide (AR antagonist) and Pimitespib (HSP90 inhibitor)). c Kaplan‒Meier survival curves of 22Rv1 xenograft mice in different groups over 20 days of treatment. d Changes in the body weights of 22Rv1 xenograft mice in different groups over 20 days of treatment. e Terminal deoxynucleotidyl transferase (TdT) dUTP nick-end labeling (TUNEL) staining of tumors after treatment with PBS, enzalutamide, pimitespib, ENZ, Pimi or Psa-AR (30 mg/kg in 200 μL of PBS) for 20 days. Scale bar: 50 μm. f Hematoxylin‒eosin (H&E) staining of the main organs after treatment with PBS or Psa-AR (30 mg/kg in 200 μL of PBS) for 24 h. Scale bar: 50 μm. g–j Blood biochemistry data, including ALT, AST, ALP, TP, ALB, GLOB, BUN, and CRE levels, of the mice after treatment with Psa-AR (20 mg/kg in 200 μL of PBS) for 1 day or 14 days (n = 3 per group). p values were determined via one-way ANOVA followed by post hoc Tukey’s test. The data are presented as the means ± SDs
# To thoroughly evaluate the in vivo biocompatibility of the Psa-AR degradation system, we performed comprehensive toxicological assessments in healthy BALB/c mice. At 24 h post-administration of either PBS or Psa-AR (30 mg/kg, n = 3 per group), we collected major organs (heart, liver, spleen, lungs, and kidneys) along with serum samples for histopathological and biochemical analysis. […] These comprehensive biosafety evaluations confirmed that the Psa-AR system maintains exceptional biocompatibility, with no acute toxicity observed in vital organs or systemic metabolic pathways. The combined histopathological and biochemical evidence strongly supports the clinical translatability of this targeted protein degradation platform.
# AR [3] = assay: Western blot AR degradation in 22Rv1 (PSMA^KD) cells; format: cell-based; conditions: 20 μM, 48 h
# Method: as §1
# as §2, with “After washing with TBST buffer three times, the blot was incubated with secondary antibodies at room temperature on a shaker for 2 h. After being washed three times with TBST buffer, the blots were subsequently scanned on a Typhoon Trio Variable Mode Imager.” left out
# RWPE-1 cells = assay: Cytotoxicity in normal RWPE-1 cells; format: cell-based; conditions: PSMA^low normal RWPE-1 cells, 1–100 μM, 48 h of exposure
# 22Rv1 cells = assay: Annexin V/PI apoptosis by flow cytometry; format: cell-based; conditions: 22Rv1, 20 μM, 48 h, n = 3
# Method: as §1
# HSP90 = HSP90 degradation in LNCaP cells; format: cell-based; conditions: time-dependent evaluation
# Method: as §2
# T1 sequence (P10275 whole entry T878A): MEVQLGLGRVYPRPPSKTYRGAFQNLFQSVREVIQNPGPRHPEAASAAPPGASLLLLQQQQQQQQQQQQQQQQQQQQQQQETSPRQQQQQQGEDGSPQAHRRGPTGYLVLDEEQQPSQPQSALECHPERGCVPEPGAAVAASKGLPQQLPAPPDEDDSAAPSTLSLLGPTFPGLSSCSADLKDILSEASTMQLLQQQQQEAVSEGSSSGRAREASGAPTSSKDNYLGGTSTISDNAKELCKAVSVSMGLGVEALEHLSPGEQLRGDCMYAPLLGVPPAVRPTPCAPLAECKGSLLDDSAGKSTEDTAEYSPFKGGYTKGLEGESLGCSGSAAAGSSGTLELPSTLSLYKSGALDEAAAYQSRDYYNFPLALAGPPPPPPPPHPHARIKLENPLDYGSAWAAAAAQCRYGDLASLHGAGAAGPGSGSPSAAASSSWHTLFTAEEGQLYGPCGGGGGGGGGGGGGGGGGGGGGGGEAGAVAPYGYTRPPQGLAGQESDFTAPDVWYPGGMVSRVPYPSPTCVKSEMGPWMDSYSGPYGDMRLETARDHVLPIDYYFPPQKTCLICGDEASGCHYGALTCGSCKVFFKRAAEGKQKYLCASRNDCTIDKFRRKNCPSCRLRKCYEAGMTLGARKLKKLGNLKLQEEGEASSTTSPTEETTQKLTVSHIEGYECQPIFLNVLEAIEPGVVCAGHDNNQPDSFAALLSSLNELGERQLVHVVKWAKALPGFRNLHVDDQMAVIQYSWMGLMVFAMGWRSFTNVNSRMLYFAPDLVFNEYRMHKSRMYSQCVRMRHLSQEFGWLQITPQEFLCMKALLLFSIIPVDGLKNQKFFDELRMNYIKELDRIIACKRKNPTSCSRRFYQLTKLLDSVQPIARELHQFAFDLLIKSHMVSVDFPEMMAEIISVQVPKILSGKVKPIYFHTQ
# T1 sequence (Q16531 whole entry, further chain): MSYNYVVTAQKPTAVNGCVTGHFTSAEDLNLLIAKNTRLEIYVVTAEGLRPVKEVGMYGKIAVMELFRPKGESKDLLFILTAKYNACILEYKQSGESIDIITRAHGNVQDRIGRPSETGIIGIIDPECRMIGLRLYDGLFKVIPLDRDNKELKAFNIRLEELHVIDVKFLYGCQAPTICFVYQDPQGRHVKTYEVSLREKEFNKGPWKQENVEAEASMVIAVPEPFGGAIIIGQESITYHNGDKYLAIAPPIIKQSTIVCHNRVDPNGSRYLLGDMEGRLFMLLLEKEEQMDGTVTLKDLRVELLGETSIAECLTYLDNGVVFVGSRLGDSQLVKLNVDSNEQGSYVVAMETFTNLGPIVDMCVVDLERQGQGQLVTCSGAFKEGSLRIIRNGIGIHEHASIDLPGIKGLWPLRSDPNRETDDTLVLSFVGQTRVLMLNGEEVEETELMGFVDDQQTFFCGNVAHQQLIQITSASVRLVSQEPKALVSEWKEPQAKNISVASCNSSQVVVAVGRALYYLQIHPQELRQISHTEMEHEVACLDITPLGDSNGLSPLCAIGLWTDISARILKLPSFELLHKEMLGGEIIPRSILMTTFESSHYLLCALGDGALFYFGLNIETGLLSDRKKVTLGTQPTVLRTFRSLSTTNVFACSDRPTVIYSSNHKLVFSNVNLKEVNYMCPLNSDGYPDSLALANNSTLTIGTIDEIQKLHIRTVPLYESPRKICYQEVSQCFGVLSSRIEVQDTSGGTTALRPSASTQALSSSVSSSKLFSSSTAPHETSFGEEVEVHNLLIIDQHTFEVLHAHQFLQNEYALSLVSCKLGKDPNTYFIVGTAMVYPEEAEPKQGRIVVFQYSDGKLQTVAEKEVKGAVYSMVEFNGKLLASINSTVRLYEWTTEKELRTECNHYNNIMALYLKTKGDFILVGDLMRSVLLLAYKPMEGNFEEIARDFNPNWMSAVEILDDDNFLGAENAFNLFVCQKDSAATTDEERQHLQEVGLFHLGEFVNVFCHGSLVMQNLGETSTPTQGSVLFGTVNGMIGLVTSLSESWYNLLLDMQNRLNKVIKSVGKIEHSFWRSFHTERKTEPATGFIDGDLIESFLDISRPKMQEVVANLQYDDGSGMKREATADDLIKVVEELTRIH
# T1 sequence (Q96SW2 whole entry, further chain): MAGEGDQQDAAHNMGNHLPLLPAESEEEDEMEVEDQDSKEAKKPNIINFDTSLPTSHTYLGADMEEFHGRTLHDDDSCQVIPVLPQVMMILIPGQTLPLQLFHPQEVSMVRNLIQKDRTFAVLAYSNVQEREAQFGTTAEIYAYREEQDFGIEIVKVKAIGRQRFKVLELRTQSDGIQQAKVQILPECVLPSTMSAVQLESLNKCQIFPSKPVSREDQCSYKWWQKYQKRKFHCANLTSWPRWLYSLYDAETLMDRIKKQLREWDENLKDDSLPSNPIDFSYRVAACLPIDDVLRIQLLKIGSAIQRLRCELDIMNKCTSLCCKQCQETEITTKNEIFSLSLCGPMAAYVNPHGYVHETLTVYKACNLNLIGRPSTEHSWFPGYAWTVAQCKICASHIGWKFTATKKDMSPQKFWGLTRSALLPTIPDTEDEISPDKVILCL
structure (smiles),measurement,setting,value
CC1(C)C(=O)N(c2ccc(C#N)c(C(F)(F)F)c2)C(=S)N1c1ccc(C(=O)NCCCC[C@H](NC(=O)CNc2cccc3c2C(=O)N(C2CCC(=O)NC2=O)C3=O)C(=O)N[C@@H](CS)C(=O)N[C@@H](CCC(N)=O)C(=O)N[C@@H](Cc2ccc(O)cc2)C(=O)N[C@@H](CC(N)=O)C(=O)N[C@@H](CCC(N)=O)C(=O)N[C@@H](Cc2ccc(O)cc2)C(=O)N[C@@H](Cc2ccc(O)cc2)C(=O)N[C@@H](Cc2ccc3ccccc3c2)C(=O)NCCCC[C@H](NC(=O)N[C@@H](CCC(=O)O)C(=O)O)C(=O)O)c(F)c1 (some centres unmarked) [Psa-AR] (H-[X1]K(X2)CQYNQYY[2Nal]-EuK),uptake efficiency relative to nonassembling P-AR,22Rv1 (PSMA^high) cells,5 fold
same,AR degradation rate,"AR [1]; LNCaP cells, time-dependent evaluation",97%
same,DC50,"AR [1]; read-out: DC50 for AR protein degradation, LNCaP cell line, 1 to 100 μM",11.4 µM
same,superior AR degradation efficiency relative to P-AR,"AR [1]; western blot, LNCaP, 20 μM, 48 h",49%
same,"routine blood analysis (WBC, NEU, LYM, RBC, PLT, HGB, MPV)",[2],no obvious changes were detected
same,"serum biochemistry (ALT, AST, ALP, TP, ALB, GLOB, BUN, CRE) versus PBS","[2]; 30 mg/kg, 24 h, n = 3",not significantly different between the groups
same,"H&E histopathology of major organs (heart, liver, spleen, lungs, kidneys)","[2]; 30 mg/kg, 24 h post-administration, n = 3",no observable pathological changes
same,AR protein degradation in PSMA-knockdown cells,AR [3],failed to induce significant protein degradation
same,cell viability relative to vehicle controls,RWPE-1 cells,above 90%
same,total apoptotic cells (early and late phases),22Rv1 cells,75%
same,HSP90 degradation rate,HSP90,70%
